Experimental data taken from ChEMBL document CHEMBL1201862, “PubChem BioAssay data set” (2004).
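Tested at 5 concentrations; 48 h exposure; 96-well plates; endpoints linearly interpolated, else capped at highest concentration. At the GI50, growth is halved.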 The source made the active and inactive calls. Rule as the data show it: active = GI50 up to about 1.1 µM and inactive = higher. Where a SMILES comes first, the peptide text is derived from it. The star is where a group is joined. OSu = O=C1CCC(=O)N1O*; OBn = c1ccc(CO*)cc1; Bn = c1ccc(C*)cc1

Key:
Assay in all cases: NCI anticancer screen, dose series, 48 h
Hs-578T = test system: Hs-578T
SK-OV-3 = test system: SK-OV-3
SNB-75 = test system: SNB-75
NCI-H460 = test system: NCI-H460
HCT-116 = test system: HCT-116
K562 = test system: K562
SF-295 = test system: SF-295
MDA-MB-231 = test system: MDA-MB-231
MDA-N = test system: MDA-N
SK-MEL-5 = test system: SK-MEL-5
SF-539 = test system: SF-539
OVCAR-4 = test system: OVCAR-4
PC-3 = test system: PC-3
SK-MEL-2 = test system: SK-MEL-2
SW-620 = test system: SW-620
NCI/ADR-RES = test system: NCI/ADR-RES
RPMI-8226 = test system: RPMI-8226
OVCAR-5 = test system: OVCAR-5
U-251 = test system: U-251
UO-31 = test system: UO-31

Row | SMILES | GI50 (Hs-578T) | GI50 (SK-OV-3) | GI50 (SNB-75) | GI50 (NCI-H460) | GI50 (HCT-116) | GI50 (K562) | GI50 (SF-295) | GI50 (MDA-MB-231) | GI50 (MDA-N) | GI50 (SK-MEL-5) | GI50 (SF-539) | GI50 (OVCAR-4) | GI50 (PC-3) | GI50 (SK-MEL-2) | GI50 (SW-620) | GI50 (NCI/ADR-RES) | GI50 (RPMI-8226) | GI50 (OVCAR-5) | GI50 (U-251) | GI50 (UO-31)
1 | O=C1c2c(O)cccc2C(C2OC(CO)C(O)C(O)C2O)c2cc(CO)cc(O)c21 (stereo not given) | > 100 µM (inactive) | > 100 µM (inactive) | > 100 µM (inactive) | > 100 µM (inactive) | > 100 µM (inactive) | > 100 µM (inactive) | > 100 µM (inactive) | > 100 µM (inactive) | > 100 µM (inactive) | > 100 µM (inactive) | > 100 µM (inactive) | > 100 µM (inactive) | > 100 µM (inactive) | > 100 µM (inactive) | > 100 µM (inactive) | > 100 µM (inactive) | > 100 µM (inactive) | > 100 µM (inactive) | > 100 µM (inactive) | > 100 µM (inactive)
2 | Cc1ccc(S(=O)(=O)C2=C(C(C)C)N=NC2(C)C)cc1 | 57.5 µM (inactive) |  | 95.3 µM (inactive) | > 100 µM (inactive) | 65.5 µM (inactive) | 28.6 µM (inactive) | 71.8 µM (inactive) | > 100 µM (inactive) | 80 µM (inactive) | 79.8 µM (inactive) | > 100 µM (inactive) | 72.9 µM (inactive) | > 100 µM (inactive) | > 100 µM (inactive) | > 100 µM (inactive) | 64.7 µM (inactive) | 9.14 µM (inactive) | > 100 µM (inactive) | > 100 µM (inactive) | > 100 µM (inactive)
3 | COC(=O)C1=CO[C@@H](OC2OC(CO)C(O)C(O)C2O)[C@H]2[C@@H](C)[C@@H](O)[C@@H](O)[C@@H]12 (stereo not given in full) | > 100 µM (inactive) | > 100 µM (inactive) | > 100 µM (inactive) |  | > 100 µM (inactive) |  | > 100 µM (inactive) | > 100 µM (inactive) | > 100 µM (inactive) | > 100 µM (inactive) | > 100 µM (inactive) | > 100 µM (inactive) | > 100 µM (inactive) | > 100 µM (inactive) | > 100 µM (inactive) | > 100 µM (inactive) | > 100 µM (inactive) | > 100 µM (inactive) | > 100 µM (inactive) | > 100 µM (inactive)
4 | O=[N+]([O-])/C=C/c1cccc(F)c1 | 3.12 µM (inactive) | 14.3 µM (inactive) | 13.7 µM (inactive) | 12.2 µM (inactive) | 0.603 µM (active) |  | 11.4 µM (inactive) | 16.4 µM (inactive) | 2.64 µM (inactive) | 4.5 µM (inactive) | 4.45 µM (inactive) | 3.75 µM (inactive) | 3.01 µM (inactive) | 12.4 µM (inactive) | 2.58 µM (inactive) | 13.1 µM (inactive) | 1.48 µM (inactive) |  | 3.53 µM (inactive) | 2.54 µM (inactive)
5 | Cc1cc2c(c(C(=O)NCC(=O)N[C@@H](C)C(=O)OCc3ccccc3)c1)Oc1c(cc(C)cc1C(=O)NCC(=O)N[C@@H](C)C(=O)OCc1ccccc1)S2 | 26.2 µM (inactive) | > 100 µM (inactive) | 15.8 µM (inactive) | > 100 µM (inactive) | > 100 µM (inactive) | 23 µM (inactive) | > 100 µM (inactive) | 34.4 µM (inactive) | > 100 µM (inactive) | > 100 µM (inactive) |  | > 100 µM (inactive) | > 100 µM (inactive) | 24.9 µM (inactive) | > 100 µM (inactive) | > 100 µM (inactive) | 43.3 µM (inactive) | > 100 µM (inactive) | > 100 µM (inactive) | > 100 µM (inactive)
6 | C=CCC1NCCC2=C1C(S(=O)(=O)c1ccc(C)cc1)c1ccccc12 (stereo not given) | 13.7 µM (inactive) | 16.6 µM (inactive) | 5.64 µM (inactive) | 11.7 µM (inactive) | 11.1 µM (inactive) | 5.62 µM (inactive) | 13.7 µM (inactive) | 12.1 µM (inactive) | 6.9 µM (inactive) | 14.3 µM (inactive) |  | 12.1 µM (inactive) | 10.4 µM (inactive) | 13.5 µM (inactive) | 14.2 µM (inactive) | 12.6 µM (inactive) | 5.55 µM (inactive) | 18.1 µM (inactive) | 11.5 µM (inactive) | 7.67 µM (inactive)
7 | COC1CC(OC2C(C)OC(OC3C(C)OC(OC4C(O)CC(O[C@H]5CC[C@@]6(C)C(=CC[C@]7(O)[C@@H]6C[C@@H](OC(C)=O)[C@@]6(C)[C@]7(O)CC[C@@]6(O)C(C)=O)C5)OC4C)CC3OC)CC2OC)OC(C)C1O (stereo not given in full) | > 12.5 µM (inactive) | > 12.5 µM (inactive) | > 12.5 µM (inactive) |  | > 12.5 µM (inactive) | > 12.5 µM (inactive) | > 12.5 µM (inactive) | > 12.5 µM (inactive) | > 12.5 µM (inactive) | > 12.5 µM (inactive) | > 12.5 µM (inactive) | > 12.5 µM (inactive) | > 12.5 µM (inactive) | > 12.5 µM (inactive) | > 12.5 µM (inactive) | > 12.5 µM (inactive) | > 12.5 µM (inactive) | > 12.5 µM (inactive) | > 12.5 µM (inactive) | 5.61 µM (inactive)
8 | CCC(=O)N(c1ccccc1)C(C)CN1CCC(O)(c2cccc(C(F)(F)F)c2)CC1 (stereo not given) | 34.8 µM (inactive) | 52.6 µM (inactive) | 32.8 µM (inactive) |  | 17.3 µM (inactive) | 20.9 µM (inactive) | 35.4 µM (inactive) | 21.6 µM (inactive) | 19.5 µM (inactive) | 20.6 µM (inactive) | 23.2 µM (inactive) | 33.3 µM (inactive) | 19.3 µM (inactive) | 20.9 µM (inactive) | > 100 µM (inactive) | 19.5 µM (inactive) | 18.7 µM (inactive) | 22.8 µM (inactive) | 37.2 µM (inactive) | 28.8 µM (inactive)
9 | C[C@H](NC(=O)CNC(=O)CCCCCC(=O)NCC(=O)N[C@@H](C)C(=O)OCc1ccccc1)C(=O)OCc1ccccc1 | > 100 µM (inactive) | > 100 µM (inactive) | > 100 µM (inactive) |  | > 100 µM (inactive) | > 100 µM (inactive) | > 100 µM (inactive) | > 100 µM (inactive) | > 100 µM (inactive) |  | > 100 µM (inactive) | > 100 µM (inactive) | > 100 µM (inactive) | > 100 µM (inactive) | > 100 µM (inactive) | > 100 µM (inactive) | > 100 µM (inactive) | > 100 µM (inactive) | > 100 µM (inactive) | 
10 | Nc1n[n+]([O-])c2ccc(Cl)cc2[n+]1[O-] | 13.9 µM (inactive) | 16.7 µM (inactive) | 4.66 µM (inactive) |  | 18.5 µM (inactive) | 10.3 µM (inactive) | 23 µM (inactive) | 32 µM (inactive) | 23.7 µM (inactive) | 4.07 µM (inactive) | 23 µM (inactive) |  | 22.3 µM (inactive) | 31.7 µM (inactive) | 20.6 µM (inactive) | 36.3 µM (inactive) | 14.7 µM (inactive) | 25.8 µM (inactive) | 19.8 µM (inactive) | 27.6 µM (inactive)
11 | CC(C)CC(NC(=O)C(N)CCC(=O)OCc1ccccc1)C(=O)NC(COCc1ccccc1)C(=O)NC(Cc1ccccc1)C(=O)ON1C(=O)CCC1=O (stereo not given) (H-E(OBn)LS(Bn)F-OSu; configuration not given here) | 26.4 µM (inactive) | 25.4 µM (inactive) | 35.7 µM (inactive) | 32.7 µM (inactive) | 16.4 µM (inactive) |  | 24.4 µM (inactive) | 18.1 µM (inactive) | 21.4 µM (inactive) | 17.4 µM (inactive) |  | 27.8 µM (inactive) | 24.5 µM (inactive) | 30.8 µM (inactive) | 37.8 µM (inactive) | 28.5 µM (inactive) | 19.9 µM (inactive) | 28.8 µM (inactive) | 24.4 µM (inactive) | 23.6 µM (inactive)
12 | COC(=O)C[C@](O)(CCCC(C)(C)O)C(=O)O[C@@H]1C(OC)=C[C@]23CCCN2CCc2cc4c(cc2[C@H]13)OCO4 [OMACETAXINE MEPESUCCINATE] | 1.07 µM (active) | 0.122 µM (active) | 0.102 µM (active) |  |  | 0.0397 µM (active) | 0.152 µM (active) | 1.7 µM (inactive) | 2.42 µM (inactive) | 0.117 µM (active) | 0.056 µM (active) | 0.342 µM (active) | 3.01 µM (inactive) | 0.259 µM (active) | 0.0682 µM (active) | 3.87 µM (inactive) | 0.0388 µM (active) | 0.494 µM (active) | 0.0571 µM (active) | 0.546 µM (active)
13 | COc1cc2oc(=O)ccc2cc1CC=C(C)C [SUBEROSIN] | 35.4 µM (inactive) |  | 41.1 µM (inactive) | 50.8 µM (inactive) | 38.6 µM (inactive) | 51.4 µM (inactive) | 41.1 µM (inactive) | 50.2 µM (inactive) | 52.5 µM (inactive) | 37.3 µM (inactive) | 37.7 µM (inactive) | 23.4 µM (inactive) | 83 µM (inactive) | 45.3 µM (inactive) | 41.3 µM (inactive) | 22.9 µM (inactive) | 19.5 µM (inactive) | 72.6 µM (inactive) | 43.3 µM (inactive) | 21.9 µM (inactive)
14 | OC[C@H]1O[C@@H](n2cnc3c(S)ncnc32)[C@H](O)[C@@H]1O [THIOINOSINE] | > 2440 µM (inactive) | 603 µM (inactive) | > 2120 µM (inactive) | 2140 µM (inactive) | 2390 µM (inactive) | 1290 µM (inactive) | > 2500 µM (inactive) | > 2500 µM (inactive) | > 2310 µM (inactive) | > 2500 µM (inactive) | > 2500 µM (inactive) | 1520 µM (inactive) | > 2500 µM (inactive) | 1490 µM (inactive) | > 2500 µM (inactive) | 2040 µM (inactive) | 1400 µM (inactive) | > 2500 µM (inactive) | > 2450 µM (inactive) | 
